Results from ChEMBL document CHEMBL3351377, “Scaffold hopping towards potent and selective JAK3 inhibitors: discovery of novel C-5 substituted pyrrolopyrazines” (Bioorg Med Chem Lett, 2014).

Target: Tyrosine-protein kinase JAK1 (Homo sapiens, UniProt P23458)

In the case of `CC[C@H](CO)Nc1ncc(-c2cnc3[nH]ccc3n2)c(N[C@H]2CCCN(S(C)(=O)=O)C2)n1`, the IC50 is reported as 0.287 µM.

Work on `CN1CCN(c2ncc(-c3cnc4[nH]ccc4n3)c(N[C@H]3CCCN(S(C)(=O)=O)C3)n2)CC1` yielded an IC50 of 0.189 µM.
